Measured values: patent US10696655B2, “Therapeutic compounds and uses thereof” (GENENTECH, INC., priority 2017, dated 2020)

Key:
CBP = CBP (Homo sapiens (Human), UniProt Q92793); test: CBP TR-FRET binding assay; details: His/Flag tagged CBP 4 nM, biotin-ligand 60 nM; read-out: CBP HTRF IC50;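 further: displacement of a biotinylated small-molecule ligand from purified recombinant CBP read by TR-FRET, DMSO-only wells as control, IC50 from nonlinear curve fit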
MYC = MYC RPL19 QuantiGene assay in MV-4-11 cells; type: cell-based; details: Homo sapiens, MV4-11, compound 4 hours
Excerpt: MYC RPL19 QuantiGene assay in MV-4-11 Cells

Sequence of CBP (Q92793 whole entry): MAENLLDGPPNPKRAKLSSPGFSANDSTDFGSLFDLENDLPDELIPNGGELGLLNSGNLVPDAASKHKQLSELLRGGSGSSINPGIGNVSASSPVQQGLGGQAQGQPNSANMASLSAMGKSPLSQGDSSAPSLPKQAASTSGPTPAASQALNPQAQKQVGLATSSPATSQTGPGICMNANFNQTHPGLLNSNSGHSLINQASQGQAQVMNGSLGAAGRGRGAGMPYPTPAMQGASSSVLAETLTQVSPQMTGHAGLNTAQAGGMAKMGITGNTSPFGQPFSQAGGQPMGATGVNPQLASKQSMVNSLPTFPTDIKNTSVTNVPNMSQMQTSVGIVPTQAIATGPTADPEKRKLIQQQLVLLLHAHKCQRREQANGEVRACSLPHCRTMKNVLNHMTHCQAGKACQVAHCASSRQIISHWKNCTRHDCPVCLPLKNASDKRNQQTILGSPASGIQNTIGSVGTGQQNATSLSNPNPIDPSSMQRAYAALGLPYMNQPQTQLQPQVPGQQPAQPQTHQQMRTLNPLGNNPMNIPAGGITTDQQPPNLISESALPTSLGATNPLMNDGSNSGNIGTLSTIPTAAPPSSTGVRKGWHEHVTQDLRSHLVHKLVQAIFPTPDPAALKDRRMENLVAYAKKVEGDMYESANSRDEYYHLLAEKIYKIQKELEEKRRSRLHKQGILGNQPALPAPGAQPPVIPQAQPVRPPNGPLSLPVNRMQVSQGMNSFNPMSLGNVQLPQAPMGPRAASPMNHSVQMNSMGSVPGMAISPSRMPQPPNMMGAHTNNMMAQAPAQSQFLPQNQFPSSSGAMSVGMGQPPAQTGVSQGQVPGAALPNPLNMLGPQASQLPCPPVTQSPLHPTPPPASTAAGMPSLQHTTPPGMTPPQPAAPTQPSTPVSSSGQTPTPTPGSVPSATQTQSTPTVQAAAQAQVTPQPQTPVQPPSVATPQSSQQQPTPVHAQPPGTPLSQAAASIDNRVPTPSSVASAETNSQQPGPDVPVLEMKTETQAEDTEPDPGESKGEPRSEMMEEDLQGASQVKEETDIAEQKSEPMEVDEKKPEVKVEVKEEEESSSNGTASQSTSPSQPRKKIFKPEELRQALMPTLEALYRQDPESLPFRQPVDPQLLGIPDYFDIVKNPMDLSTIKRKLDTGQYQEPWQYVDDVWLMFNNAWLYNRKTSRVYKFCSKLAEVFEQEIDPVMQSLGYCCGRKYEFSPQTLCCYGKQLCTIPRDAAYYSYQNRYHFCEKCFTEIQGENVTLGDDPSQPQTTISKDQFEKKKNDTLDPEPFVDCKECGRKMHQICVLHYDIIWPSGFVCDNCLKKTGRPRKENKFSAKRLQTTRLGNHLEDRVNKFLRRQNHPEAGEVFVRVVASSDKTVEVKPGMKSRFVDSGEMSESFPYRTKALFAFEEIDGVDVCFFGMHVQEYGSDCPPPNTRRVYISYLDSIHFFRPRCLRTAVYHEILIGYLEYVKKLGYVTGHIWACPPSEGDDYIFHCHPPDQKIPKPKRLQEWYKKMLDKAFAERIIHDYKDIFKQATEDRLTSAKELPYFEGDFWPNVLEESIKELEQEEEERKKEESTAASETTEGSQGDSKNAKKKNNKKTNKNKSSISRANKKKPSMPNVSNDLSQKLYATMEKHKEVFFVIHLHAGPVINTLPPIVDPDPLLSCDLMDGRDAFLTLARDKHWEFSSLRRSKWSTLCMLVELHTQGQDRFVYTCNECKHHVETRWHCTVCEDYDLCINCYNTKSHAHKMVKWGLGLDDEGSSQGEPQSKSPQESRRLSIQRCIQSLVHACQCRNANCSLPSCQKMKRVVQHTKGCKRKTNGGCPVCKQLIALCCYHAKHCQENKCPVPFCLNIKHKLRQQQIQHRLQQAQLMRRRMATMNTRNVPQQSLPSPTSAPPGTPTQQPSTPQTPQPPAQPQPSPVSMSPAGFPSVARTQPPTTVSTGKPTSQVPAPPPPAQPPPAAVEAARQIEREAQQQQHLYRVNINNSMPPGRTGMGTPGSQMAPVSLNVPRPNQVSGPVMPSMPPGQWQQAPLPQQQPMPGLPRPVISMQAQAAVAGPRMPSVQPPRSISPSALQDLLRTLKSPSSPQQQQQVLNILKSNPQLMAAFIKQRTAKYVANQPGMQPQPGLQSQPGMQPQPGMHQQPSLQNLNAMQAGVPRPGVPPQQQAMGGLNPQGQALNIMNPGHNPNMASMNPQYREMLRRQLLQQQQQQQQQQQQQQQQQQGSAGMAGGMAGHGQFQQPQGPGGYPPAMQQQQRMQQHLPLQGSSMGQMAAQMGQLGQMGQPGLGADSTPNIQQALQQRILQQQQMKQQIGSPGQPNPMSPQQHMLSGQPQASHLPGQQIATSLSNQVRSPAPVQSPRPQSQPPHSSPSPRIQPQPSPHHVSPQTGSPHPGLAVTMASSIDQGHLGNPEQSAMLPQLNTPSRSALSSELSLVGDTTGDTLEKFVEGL

| SMILES | IC50 (CBP) [nM] | IC50 (MYC) [nM] |
| --- | --- | --- |
| CC(=O)N1CCc2c(cc(N3CCCc4cc(-c5cnn(C)c5)c(C(F)F)cc43)c(=O)n2C)C1 [Example 17] | 47 | 2660 |
| CNC(=O)c1cn(C)c2cc(F)c(N3CCCc4cc(-c5cnn(C)c5)c(C(F)F)cc43)cc12 [Example 56] | 10 | 4040 |
| CNC(=O)c1ccc2c(c1)c(N1CCCc3cc(-c4cnn(C)c4)c(C(F)F)cc31)nn2C1CCOCC1 [Example 83, 3-(7-(difluoromethyl)-6-(1-methyl-1H-pyrazol-4-yl)-3,4-dihydroquinolin-1(2H)-yl)-N-methyl-1-(tetrahydro-2H-pyran-4-yl)-1H-indazole-5-carboxamide] | 9 | 177 |
| CNC(=O)c1cn(C)c2c(C)cc(N3CCCc4cc(-c5cnn(C)c5)c(C(F)F)cc43)nc12 [Example 60] | 9 | 108 |
| CNC(=O)Nc1cc(OC)cc(N2CCCc3cc(-c4cnn(C)c4)c(C(F)F)cc32)n1 [Example 123, 1-(6-(7-(difluoromethyl)-6-(1-methyl-1H-pyrazol-4-yl)-3,4-dihydroquinolin-1(2H)-yl)-4-methoxypyridin-2-yl)-3-methylurea] | 115 | 3380 |
| CNC(=O)c1cn(C)c2c(C)cc(N3CCCc4cc(-c5cnn(C)c5)c(C(F)F)cc43)cc12 [Example 104, 5-(7-(difluoromethyl)-6-(1-methyl-1H-pyrazol-4-yl)-3,4-dihydroquinolin-1(2H)-yl)-N,1,7-trimethyl-1H-indole-3-carboxamide] | 16 | 377 |
| CNC(=O)c1cn(C)c2c(C3CCOCC3)cc(N3CCCc4cc(-c5cnn(C)c5)c(C(F)F)cc43)cc12 [Example 105, 5-(7-(difluoromethyl)-6-(1-methyl-1H-pyrazol-4-yl)-3,4-dihydroquinolin-1(2H)-yl)-N,1-dimethyl-7-(tetrahydro-2H-pyran-4-yl)-1H-indole-3-carboxamide] | 11 | 86 |
| CNC(=O)c1c[nH]c2ccc(N3CCCc4cc(-c5cnn(C)c5)c(C(F)F)cc43)cc12 [Example 52, 5-(7-(difluoromethyl)-6-(1-methyl-1H-pyrazol-4-yl)-3,4-dihydroquinolin-1(2H)-yl)-N-methyl-1H-indole-3-carboxamide] | 9 | 2180 |
| Cn1cc(-c2cc3c(cc2C(F)F)N(c2cc(C4CCOCC4)c4c(c2)n(C)c(=O)n4C)CCC3)cn1 [Example 97, 6-(7-(difluoromethyl)-6-(1-methyl-1H-pyrazol-4-yl)-3,4-dihydroquinolin-1(2H)-yl)-1,3-dimethyl-4-(tetrahydro-2H-pyran-4-yl)-1H-benzo[d]imidazol-2(3H)-one] | 4 | 58 |
| CC(=O)N1CCOc2ccc(N3CCCc4cc(-c5cnn(C)c5)c(C(F)F)cc43)cc2C1 [Example 112, 1-(7-(7-(difluoromethyl)-6-(1-methyl-1H-pyrazol-4-yl)-3,4-dihydroquinolin-1(2H)-yl)-2,3-dihydrobenzo[f][1,4]oxazepin-4(5H)-yl)ethanone] | 32 | 2100 |
| CNC(=O)c1c[nH]c2c(C)cc(N3CCCc4cc(-c5cnn(C)c5)c(C(F)F)cc43)nc12 [Example 66] | 4 | 46 |
| Cc1c(N2CCCc3cc(-c4cnn(C)c4)c(C(F)F)cc32)ccc2c1n(C)c(=O)n2C [Example 40] | 72 | 1940 |
| C[C@H]1Nc2c(cccc2N2CCCc3cc(-c4cnn(C)c4)c(C(F)F)cc32)NC1=O [Example 81, (R)-5-(7-(difluoromethyl)-6-(1-methyl-1H-pyrazol-4-yl)-3,4-dihydroquinolin-1(2H)-yl)-3-methyl-3,4-dihydroquinoxalin-2(1H)-one] |  | 131 |
| CNC(=O)c1ccc2c(c1)c(N1CCCc3cc(-c4cnn(C)c4)ccc31)nn2C1CCOCC1 [Example 84] | 87 |  |
| CN1C(=O)C(C)(C)c2ccc(N3CCCc4cc(-c5cnn(C)c5)c(C(F)F)cc43)cc21 [Example 20] | 1750 |  |
| CNC(=O)N1CCOc2ccc(-c3nc(N)cc4cnccc34)cc2C1 [Example 2] | 321 |  |
| Cn1cc(-c2cc3c(cc2C(F)F)N(c2cnc4c(c2)n(C)c(=O)n4C)CCC3)cn1 [Example 25] | 38 |  |
| CNC(=O)c1c[nH]c2ccc(N3CCCc4cc(-c5cnn(C)c5)ccc43)cc12 [Example 53] | 48 |  |
| C#Cc1cc2c(cc1N1CCCc3cc(-c4cnn(C)c4)c(C(F)F)cc31)n(C)c(=O)n2C [Example 102, 5-(7-(difluoromethyl)-6-(1-methyl-1H-pyrazol-4-yl)-3,4-dihydroquinolin-1(2H)-yl)-6-ethynyl-1,3-dimethyl-1H-benzo[d]imidazol-2(3H)-one] | 21 |  |
| CNC(=O)N1CCOc2c(cc(-c3ccccc3C)cc2OC)C1 [Example 111, 9-methoxy-N-methyl-7-(o-tolyl)-2,3-dihydrobenzo[f][1,4]oxazepine-4(5H)-carboxamide] | 409 |  |
| Cn1cc(-c2cc3c(cc2C(F)F)N(c2ccc4c(c2)sc(=O)n4C)CCC3)cn1 [Example 22] | 1690 |  |
| CNC(=O)N1CCOc2ccc(-c3c(C)ccc(-c4cnn(C)c4)c3C(F)F)cc2C1 [Example 76, 7-(2-(difluoromethyl)-6-methyl-3-(1-methyl-1H-pyrazol-4-yl)phenyl)-N-methyl-2,3-dihydrobenzo[f][1,4]oxazepine-4(5H)-carboxamide] | 243 |  |

| SMILES | IC50 (CBP) [nM] | IC50 (MYC) [nM] |
| --- | --- | --- |
| CNC(=O)N1CCOc2ccc(-c3cccc4cnn(C)c34)cc2C1 [Example 8] | 394 |  |
| CN1C(=O)CCc2ccc(N3CCCc4cc(-c5cnn(C)c5)c(C(F)F)cc43)cc21 [Example 19] | 33 |  |
| CN1C(=O)C(=O)c2ccc(N3CCCc4cc(-c5cnn(C)c5)c(C(F)F)cc43)cc21 [Example 89, 6-[7-(difluoromethyl)-6-(1-methylpyrazol-4-yl)-3,4-dihydro-2H-quinolin-1-yl]-1-methyl-indoline-2,3-dione] | 78 |  |
| CNC(=O)c1cn(C)c2c(OC)cc(N3CCCc4cc(-c5cnn(C)c5)c(C(F)F)cc43)cc12 [Example 106, 5-(7-(difluoromethyl)-6-(1-methyl-1H-pyrazol-4-yl)-3,4-dihydroquinolin-1(2H)-yl)-7-methoxy-N,1-dimethyl-1H-indole-3-carboxamide] | 16 |  |
| Cn1cc(-c2cc3c(cc2C(F)F)N(c2cc(C4CC4)c4c(c2)n(C)c(=O)n4C)CCC3)cn1 [Example 38] | 16 |  |
| CNC(=O)c1ccc2nccc(N3CCCc4cc(-c5cnn(C)c5)ccc43)c2c1 [Example 29] | 160 |  |
| CNC(=O)c1cn(C)nc1C(=O)Nc1cccc2cc(-c3cnn(C)c3)ncc12 [Example 124, N^4,1-dimethyl-N^3-(3-(1-methyl-1H-pyrazol-4-yl)isoquinolin-8-yl)-1H-pyrazole-3,4-dicarboxamide] | 14 |  |
| C[C@H]1Nc2c(cccc2N2CCCc3cc(-c4cnn(C)c4)ccc32)NC1=O [Example 82, (R)-3-methyl-5-(6-(1-methyl-1H-pyrazol-4-yl)-3,4-dihydroquinolin-1(2H)-yl)-3,4-dihydroquinoxalin-2(1H)-one] | 325 |  |
| C#Cc1cc(N2CCCc3cc(-c4cnn(C)c4)c(C(F)F)cc32)cc2c1n(C)c(=O)n2C [Example 101, 6-(7-(difluoromethyl)-6-(1-methyl-1H-pyrazol-4-yl)-3,4-dihydroquinolin-1(2H)-yl)-4-ethynyl-1,3-dimethyl-1H-benzo[d]imidazol-2(3H)-one] | 12 |  |
| Cn1cc(-c2ccc3c(c2)CCCN3c2ccc3sc(=O)n(C)c3c2)cn1 [Example 23] | 317 |  |
| CCC(=O)N1CCOc2ccc(N3CCCc4cc(-c5cnn(C)c5)ccc43)cc2C1 [Example 79, 1-(7-(6-(1-methyl-1H-pyrazol-4-yl)-3,4-dihydroquinolin-1(2H)-yl)-2,3-dihydrobenzo[f][1,4]oxazepin-4(5H)-yl)propan-1-one] | 77 |  |
| CNC(=O)C1CCc2c(c(N3CCCc4cc(-c5cnn(C)c5)c(C(F)F)cc43)nn2C2CCOCC2)C1 (stereo not shown) [Example 126, 3-(7-(difluoromethyl)-6-(1-methyl-1H-pyrazol-4-yl)-3,4-dihydroquinolin-1(2H)-yl)-N-methyl-1-(tetrahydro-2H-pyran-4-yl)-4,5,6,7-tetrahydro-1H-indazole-5-carboxamide] | 184 |  |
| CNC(=O)c1ccc2cncc(N3CCCc4cc(-c5cnn(C)c5)c(C(F)F)cc43)c2c1 [Example 119, 4-(7-(difluoromethyl)-6-(1-methyl-1H-pyrazol-4-yl)-3,4-dihydroquinolin-1(2H)-yl)-N-methylisoquinoline-6-carboxamide] | 34 |  |
| CNC(=O)c1cn(C)c2ccc(-c3cccc4cc(-c5cnn(C)c5)ncc34)cc12 [Example 49] | 22 |  |
| CNC(=O)N1CCOc2ccc(-c3cc(C)ccc3C)cc2C1 [Example 7] | 273 |  |
| CCc1cc(-c2ccccc2C)cc2c1OCCN(C(=O)NC)C2 [Example 109, 9-ethyl-N-methyl-7-(o-tolyl)-2,3-dihydrobenzo[f][1,4]oxazepine-4(5H)-carboxamide] | 273 |  |
| CNC(=O)[C@@H]1CCc2ccc(N3CCCc4cc(-c5cnn(C)c5)c(C(F)F)cc43)nc21 [Example 118, (R)-2-(7-(difluoromethyl)-6-(1-methyl-1H-pyrazol-4-yl)-3,4-dihydroquinolin-1(2H)-yl)-N-methyl-6,7-dihydro-5H-cyclopenta[b]pyridine-7-carboxamide] | 3240 |  |
| CNC(=O)N1CCOc2ccc(-c3nccc4ccccc34)cc2C1 [Example 1, 7-(isoquinolin-1-yl)-N-methyl-2,3-dihydrobenzo[f][1,4]oxazepine-4(5H)-carboxamide] | 187 |  |
| CNC(=O)N1CCOc2ccc(-c3cccc4cn[nH]c34)cc2C1 [Example 15] | 391 |  |
| CNC(=O)c1cn(C)c2cnc(N3CCCc4cc(-c5cnn(C)c5)c(C(F)F)cc43)nc12 [Example 61] | 26 |  |
| CC(=O)N1CCCc2cc(N3CCCc4cc(-c5cnn(C)c5)c(C(F)F)cc43)ccc21 [Example 87, 1-[6-[7-(difluoromethyl)-6-(1-methylpyrazol-4-yl)-3,4-dihydro-2H-quinolin-1-yl]-3,4-dihydro-2H-quinolin-1-yl]ethanone] | 429 |  |
